Literature values in PMC4130638, “Structure of a Stapled Peptide Antagonist Bound to Nutlin-Resistant Mdm2” (PLoS ONE, 2014).
Entries after “also recorded” stand apart in the source; their conditions may differ.

Legend:
[1] = tested on: Mdm2 M62A (N-terminal domain); settings: M62A mutation in N-terminal domain of Mdm2
[2] = tested on: Mdm2 Q24R (N-terminal domain); settings: Q24R mutation in N-terminal domain of Mdm2

Nutlin-3a
binding affinity for Mdm2 M62A [1]: precludes binding of Nutlin, but not p53; also recorded: selectively reducing affinity for Nutlin but not p53; also recorded: significantly impairing binding | binding affinity for Mdm2 Q24R [2]: selectively reducing affinity for Nutlin but not p53
